Entries after “also recorded” stand apart in the source; their conditions may differ.
Assays:
[1] = system: weeds; Wheat and canola; assay: Ex28 PRE greenhouse; format: in vivo; conditions: 28 DAT, rate in the words
Source text: The tested weeds in this study are redroot pigweed (Amaranth retroflexus, AMARE), Italian ryegrass (Lolium perenne. multiflorum, LOLMU), wild mustard (Sinapis arvensis, SINAR), annual bluegrass (Poa annua, POAAN), wild oat (Avena fatua, AVEFA), blackgrass (Alopecurus myosuroides, ALOMY), common lambsquarters (Chenopodium album, CHEAL), littleseed canarygrass (Phalaris minor, PHAMI), common chickweed (Stellaria media, STEME), corn poppy (Papaver rhoeas, PAPRH), and silky windgrass (Apera spica-venti, APESV). The tested crops are wheat and canola.
Additionally, 2,4 DC was applied alone at 400 g ai/ha.
(§1) Treatments were applied before the emergence of redroot pigweed, Italian ryegrass, wild oat, blackgrass, littleseed canarygrass, common chickweed, common lambsquarters, corn poppy, wild mustard, annual bluegrass, silky windgrass, canola, and wheat. […] Flats were watered and fertilized routinely after treatment application.

[2] = system: Velvetleaf; assay: Ex37 PRE 2,4-DC + atrazine, % control 28 DAT, Colby; format: in vivo, Abutilon theophrasti
Source text: S-metolachlor (DUAL II MAGNUM®, 82.4%) at 525 g ai/h plus atrazine at 560 g ai/h was included as a standard for comparison. […] Thereafter flats were watered and fertilized routinely.

[3] = system: weeds; Wheat and canola; assay: Ex35 PRE greenhouse; format: in vivo; conditions: rate in the words
Source text: Crops screened were wheat and canola.

[4] = system: Wild mustard; assay: Ex13 PRE 2,4-DC + diflufenican, % control 28 DAT, Colby; format: in vivo, Sinapis arvensis
Source text: Pyroxasulfone (KIH-485, 85%) at 74.3 g ai/ha, pendimethalin (Prowl 3.3EC, 37.4%) at 1200 g ai/ha, or a premix of chlorsulfuron plus metsulfuron-methyl (Report Extra, 75%) at 15.8 g ai/ha were applied as commercial standards. […] Treatments were replicated 3 times and flats were watered after planting before the treatment and lightly watered after treatment application. Thereafter flats were watered and fertilized routinely.

[5] = system: weeds; Wheat and Barley; assay: Ex36 POST greenhouse; format: in vivo; conditions: rate in the words
Source text: Crops screened were wheat and barley.

[6] = system: weeds; canola, and wheat; assay: Ex30 PRE greenhouse; format: in vivo
Source text: as §1, with “of” for “of redroot pigweed,”, “poppy, silky windgrass, redroot pigweed,” for “poppy,”, “bluegrass,” for “bluegrass, silky windgrass,”

[7] = system: weeds; Wheat and Barley; assay: Ex41 POST greenhouse; format: in vivo; conditions: rate in the words
Protocol: Treatments were applied to wheat and barley crops.
Nonionic surfactant was added at 0.5% v/v in all treatments. Treatments were applied to wheat (5.5″), barley (5″), wild oat (5.5″), common chickweed (2″), wild buckwheat (3″), and common lambsquarters (2″). All plant species were direct seeded into 3″ plastic pots using metro-mix as growth media and pots were watered well before application and watered 24 h after application. Plants were watered and fertilized routinely after treatment application. Each treatment was replicated four times.

[8] = system: Velvetleaf; assay: Ex33 PRE 2,4-DC + fluthiacet-methyl + pyroxasulfone, % control 28 DAT, Colby; format: in vivo, Abutilon theophrasti
Source text: ANTHEM® (fluthiacet-methyl, 0.69% plus pyroxasulfone, 22.61%) was included as a standard at labeled rate, Fluthiacet-methyl at 4.9 g ai/ha and pyroxasulfone at 165 g ai/ha. […] The following weeds were screened, Palmer amaranth, Pennsylvania smartweed, velvetleaf, green foxtail, morningglory, Italian ryegrass, prickly sida, and yellow nutsedge. Crops screened were cotton, lentil, mung bean, bush bean, and cowpea. […] Thereafter flats were watered and fertilized routinely.

`CC1(C)CON(Cc2ccc(Cl)cc2Cl)C1=O` [2,4-DC, 2-(2,4-dichlorophenyl)methyl-4,4-dimethyl-3-isoxazolidinone] was tested, and the “weed control / crop safety in words” value [1] was “alone provided control of pigweed and corn poppy at 400 g, Italian ryegrass at ≥200 g, blackgrass and lambsquarters at 400 g, and chickweed at all rates; also recorded: caused greater than 10% injury to canola at all rates and 2,4 DC was safe on wheat up to 200 g ai/ha”, the “X (% control, 2,4-DC alone)” value ([2]; PRE, 2,4-DC 50 g ai/ha) was 18% and the “X (% control, 2,4-DC alone)” value ([2]; PRE, 2,4-DC 100 g ai/ha) was 19%. The “X (% control, 2,4-DC alone)” value ([2]; PRE, 2,4-DC 200 g ai/ha) was 90%, the “weed control / crop safety in words” value [3] was “alone at 50 g ai/ha controlled (≥85% injury) common chickweed, at 100 g controlled blackgrass and wild buckwheat; also recorded: alone was safe on wheat and canola (≤10% injury) when applied at 50 and 100 g” and the X ([4]; 2,4-DC alone 125 g ai/ha) was 10%. For the same compound, the X ([4]; 2,4-DC alone 170 g ai/ha) was 15%, the X ([4]; 2,4-DC alone 210 g ai/ha) was 26% and the X ([4]; 2,4-DC alone 250 g ai/ha) was 23%. The “weed control / crop safety in words” value [5] was “alone applied to barley was safe at 50 g ai/ha”, the injury to canola ([6]; at 100 g) was 11% and the injury to wheat ([6]; at 200 g) was 11%. For the same compound, the “weed control in words” value ([6]; weed and rate in the words) was “alone gave control of pigweed, corn poppy, and Italian ryegrass at ≥200 g ai/ha, wild oat at 400 g, blackgrass at ≥100 g, and common chickweed at all rates”, the “weed control / crop safety in words” value [7] was “Wheat was safe with 2,4-DC alone up to 170 g ai/ha, barley was not safe with any rate of 2,4-DC alone” and the X ([8]; 2,4-DC alone 31 g ai/ha) was 7%. For the same compound, the X ([8]; 2,4-DC alone 63 g ai/ha) was 23%, the X ([8]; 2,4-DC alone 125 g ai/ha) was 27% and the X ([8]; 2,4-DC alone 250 g ai/ha) was 30%. For the same compound, the X ([8]; 2,4-DC alone 375 g ai/ha) was 89%.

— patent US12616203B2, “Use of 3-isoxazolidinones compounds as selective herbicides” (FMC Corporation, priority 2014, dated 2026)
